{
  "source": "patent US20040253289A1",
  "about": "“Natural plant compound with anti-HIV activity” (MIKONIK TECHNOLOGIES, LTD., priority 2004, published 2004)",
  "key": {"[1]": {"test_system": "human immunodeficiency virus", "conditions": "cited from earlier work; for inhibition of viral replication: in vitro"}, "[2]": {"test_system": "HIV-1zmb high/rapid strain", "assay": "Indirect immunofluorescence (IF), HIV-specific antigens on infected cells", "type": "cell-based", "conditions": "3rd day after infecting", "source_text": "(§1) In all experiments the suspensional T-lymphoblastoid cell line MT-4 was used. Passages have been carried out every three days for achieving the initial cell concentration at about 4-5·10^5 cells ml^−1.\n(§2) HIV-1zmb high/rapid strain with the titer more than 6.0 log TCID50 isolated in Belarus has been used in the tests.\n(§3) The tests have been carried out under therapeutic circuit when the testing compound and virus were put into the cell culture simultaneously.\nThe indirect immunofluorescence assay is a useful means for determining the number of cells productively infected with HIV [Johnson V. A., Byington R. E. HIV indirect immunofluorescence assay. In “Techniques in HIV Research”: Stockton Press, 1990. P. 87-91]. This assay is quantitative and can be done using living cells. The technique gives the possibility to determine HIV-specific antigens expressed on cell surface membranes of the virus-infected cells. On the 3rd day after infecting, cells have been transferred onto wells of the laminated multiwell slides and fixed by cold (4° C.) acetone. Then the samples with fixed cells were treated by HIV-1-seropositive serum and then by FTC-conjugated sheep anti-human IgG. The resulting effect was estimated via evaluation of percentage of positive cells that was calculated using fluorescent microscope and taking into account 200 cells. […]"}, "[3]": {"conditions": "prolonged and chronic experiments; cited from earlier work"}, "mice": {"test_system": "mice", "conditions": "acute toxicity; cited from earlier work"}, "rats": {"test_system": "rats", "conditions": "acute toxicity; cited from earlier work"}, "Siberian sturgeon fry": {"test_system": "Siberian sturgeon fry", "conditions": "Siberian sturgeon fry treated with solution; cited from earlier work"}, "[4]": {"test_system": "HIV-1zmb high/rapid strain", "assay": "In vitro anti-HIV activity in infected cell culture (overall, three tests)", "type": "cell-based", "source_text": "as §1, §2, §3"}},
  "data": [
    {"smiles": "CC(C)CCC[C@@H](C)[C@H]1CC[C@H]2[C@@H]3[C@@H](O)C=C4C[C@@H](O)CC[C@]4(C)[C@H]3CC[C@]12C", "note": "[7β-hydroxycholesterol]", "values": [
      {"measurement": "inhibition of viral replication", "setting": "[1]", "result": "inhibited viral replication at micromolar concentrations"}
    ]},
    {"smiles": "C[C@H](CCCC(C)(C)O)[C@H]1CC[C@H]2[C@@H]3CC=C4C[C@@H](O)CC[C@]4(C)[C@H]3CC[C@]12C", "note": "[25-hydroxycholesterol]", "values": [
      {"measurement": "inhibition of viral replication", "setting": "[1]", "result": "inhibited viral replication at micromolar concentrations"}
    ]},
    {"smiles": "CC(C)[C@@H](C)[C@@H](O)[C@H](O)[C@@H](C)[C@H]1CC[C@H]2[C@@H]3COC(=O)[C@H]4C[C@H](O)[C@H](O)C[C@]4(C)[C@H]3CC[C@]12C", "note": "[24-epibrassinolide]", "values": [
      {"measurement": "production of viral-specific antigens on the cell's surface", "setting": "[2]", "result": "significantly decreased production of viral-specific antigens"},
      {"measurement": "postponed negative effects", "setting": "[3]", "result": "no postponed negative effects"},
      {"measurement": "LD50", "setting": "mice", "result": "more than 1000 mg·kg^−1"},
      {"measurement": "LD50", "setting": "rats", "result": "more than 2000 mg·kg^−1"},
      {"measurement": "increase of bacteriolytic activity of lysozyme in comparison with the control fish", "setting": "Siberian sturgeon fry", "result": "up to 50%"},
      {"measurement": "γ-globulin level higher than in the control", "setting": "Siberian sturgeon fry", "result": "10 to 65", "unit": "%"},
      {"measurement": "amount of the living cells in the infected culture, higher in comparison with untreated control", "setting": "[4]; 4-5th days after infecting", "result": "more than 50%"},
      {"measurement": "average efficient concentration as anti-HIV agent in vitro", "setting": "[4]; each test done in three repetitions, listed as EBI", "result": 10, "unit": "ng/mL"}
    ]},
    {"smiles": "C[C@H](CCCC(C)(C)O)[C@H]1CC[C@H]2[C@@H]3[C@@H](O)C=C4C[C@@H](O)CC[C@]4(C)[C@H]3CC[C@]12C", "note": "[7β,25-dihydroxycholesterol]", "values": [
      {"measurement": "antiviral concentration, fold lower than the highest concentration tested at which no toxicity was measurable", "setting": "[1]; HIV replication in vitro", "result": "13- to 25 fold"},
      {"measurement": "inhibition of viral replication", "setting": "[1]", "result": "inhibited viral replication at micromolar concentrations"}
    ]}
  ]
}
